# Experiments:
# Type in all cases: biochemical
# Details in all cases: Table 13, A compounds; 1 μM ATP
# EGFR = EGFR (Homo sapiens, UniProt P00533); assay: Inhibition of a panel of kinases, in vitro HotSpot kinase assay: EGFR
# Protocol: (§1) The degree of inhibition of a panel of kinases is determined using the in vitro HotSpot kinase assay (purified enzymes, ^33P-ATP, an appropriate substrate and 1 μM ATP).
# ITK = biological target: T1, ITK (Homo sapiens, UniProt Q08881); assay: Inhibition of a panel of kinases, in vitro HotSpot kinase assay: ITK
# T1 sequence (Q08881 1-620): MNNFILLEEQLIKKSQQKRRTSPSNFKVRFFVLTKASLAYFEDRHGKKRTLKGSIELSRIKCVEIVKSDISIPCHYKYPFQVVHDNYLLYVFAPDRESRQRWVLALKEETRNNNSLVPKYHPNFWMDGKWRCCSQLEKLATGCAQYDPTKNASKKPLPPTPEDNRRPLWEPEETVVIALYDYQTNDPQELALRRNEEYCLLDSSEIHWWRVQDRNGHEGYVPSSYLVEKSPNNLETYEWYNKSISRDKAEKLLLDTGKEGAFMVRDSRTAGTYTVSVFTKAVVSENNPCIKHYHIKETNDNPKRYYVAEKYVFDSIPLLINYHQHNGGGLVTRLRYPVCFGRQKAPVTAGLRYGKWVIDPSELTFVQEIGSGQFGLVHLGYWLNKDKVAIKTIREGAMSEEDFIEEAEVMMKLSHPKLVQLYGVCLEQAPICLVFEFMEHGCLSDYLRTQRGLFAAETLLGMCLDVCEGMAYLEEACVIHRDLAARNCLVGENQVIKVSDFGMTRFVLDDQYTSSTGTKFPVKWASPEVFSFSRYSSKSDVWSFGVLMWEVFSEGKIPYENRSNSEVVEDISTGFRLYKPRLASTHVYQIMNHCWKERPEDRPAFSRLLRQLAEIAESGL
# Protocol: as §1
# SRC = SRC (Homo sapiens, UniProt P12931); assay: Inhibition of a panel of kinases, in vitro HotSpot kinase assay: SRC
# Sequence of SRC (P12931 whole entry): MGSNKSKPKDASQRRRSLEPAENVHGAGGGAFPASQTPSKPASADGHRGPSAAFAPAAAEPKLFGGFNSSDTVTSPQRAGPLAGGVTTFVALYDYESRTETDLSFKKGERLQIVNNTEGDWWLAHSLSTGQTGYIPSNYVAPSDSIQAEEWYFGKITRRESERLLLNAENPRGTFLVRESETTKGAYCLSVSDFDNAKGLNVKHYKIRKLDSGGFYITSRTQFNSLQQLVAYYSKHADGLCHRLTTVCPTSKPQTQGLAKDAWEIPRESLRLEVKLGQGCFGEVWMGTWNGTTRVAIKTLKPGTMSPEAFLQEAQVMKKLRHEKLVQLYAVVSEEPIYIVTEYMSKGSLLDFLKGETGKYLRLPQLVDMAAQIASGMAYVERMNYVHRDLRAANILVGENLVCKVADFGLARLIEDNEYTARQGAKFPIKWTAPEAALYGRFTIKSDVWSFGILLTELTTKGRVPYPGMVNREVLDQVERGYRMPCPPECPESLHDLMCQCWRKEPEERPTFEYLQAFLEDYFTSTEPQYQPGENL
# Protocol: as §1
# TEC = biological target: T2, TEC (Homo sapiens, UniProt P42680); assay: Inhibition of a panel of kinases, in vitro HotSpot kinase assay: TEC
# T2 sequence (P42680 1-631): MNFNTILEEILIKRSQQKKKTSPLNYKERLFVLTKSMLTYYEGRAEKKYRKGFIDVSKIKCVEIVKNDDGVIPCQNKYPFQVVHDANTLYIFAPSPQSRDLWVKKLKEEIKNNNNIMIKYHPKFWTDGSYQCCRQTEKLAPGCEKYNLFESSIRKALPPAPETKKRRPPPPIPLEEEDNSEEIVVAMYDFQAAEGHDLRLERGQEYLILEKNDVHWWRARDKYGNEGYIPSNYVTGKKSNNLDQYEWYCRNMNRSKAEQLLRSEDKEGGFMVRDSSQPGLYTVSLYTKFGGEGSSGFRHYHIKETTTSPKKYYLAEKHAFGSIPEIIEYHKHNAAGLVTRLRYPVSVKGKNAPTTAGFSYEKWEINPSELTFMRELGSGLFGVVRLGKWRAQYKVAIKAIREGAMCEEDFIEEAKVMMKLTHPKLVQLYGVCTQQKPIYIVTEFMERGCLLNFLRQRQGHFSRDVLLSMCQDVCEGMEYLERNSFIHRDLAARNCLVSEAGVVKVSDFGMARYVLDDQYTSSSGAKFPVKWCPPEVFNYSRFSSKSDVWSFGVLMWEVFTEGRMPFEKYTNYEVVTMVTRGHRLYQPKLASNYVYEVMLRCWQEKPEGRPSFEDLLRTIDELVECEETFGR
# Protocol: as §1
# Sequence of EGFR (P00533 25-1210): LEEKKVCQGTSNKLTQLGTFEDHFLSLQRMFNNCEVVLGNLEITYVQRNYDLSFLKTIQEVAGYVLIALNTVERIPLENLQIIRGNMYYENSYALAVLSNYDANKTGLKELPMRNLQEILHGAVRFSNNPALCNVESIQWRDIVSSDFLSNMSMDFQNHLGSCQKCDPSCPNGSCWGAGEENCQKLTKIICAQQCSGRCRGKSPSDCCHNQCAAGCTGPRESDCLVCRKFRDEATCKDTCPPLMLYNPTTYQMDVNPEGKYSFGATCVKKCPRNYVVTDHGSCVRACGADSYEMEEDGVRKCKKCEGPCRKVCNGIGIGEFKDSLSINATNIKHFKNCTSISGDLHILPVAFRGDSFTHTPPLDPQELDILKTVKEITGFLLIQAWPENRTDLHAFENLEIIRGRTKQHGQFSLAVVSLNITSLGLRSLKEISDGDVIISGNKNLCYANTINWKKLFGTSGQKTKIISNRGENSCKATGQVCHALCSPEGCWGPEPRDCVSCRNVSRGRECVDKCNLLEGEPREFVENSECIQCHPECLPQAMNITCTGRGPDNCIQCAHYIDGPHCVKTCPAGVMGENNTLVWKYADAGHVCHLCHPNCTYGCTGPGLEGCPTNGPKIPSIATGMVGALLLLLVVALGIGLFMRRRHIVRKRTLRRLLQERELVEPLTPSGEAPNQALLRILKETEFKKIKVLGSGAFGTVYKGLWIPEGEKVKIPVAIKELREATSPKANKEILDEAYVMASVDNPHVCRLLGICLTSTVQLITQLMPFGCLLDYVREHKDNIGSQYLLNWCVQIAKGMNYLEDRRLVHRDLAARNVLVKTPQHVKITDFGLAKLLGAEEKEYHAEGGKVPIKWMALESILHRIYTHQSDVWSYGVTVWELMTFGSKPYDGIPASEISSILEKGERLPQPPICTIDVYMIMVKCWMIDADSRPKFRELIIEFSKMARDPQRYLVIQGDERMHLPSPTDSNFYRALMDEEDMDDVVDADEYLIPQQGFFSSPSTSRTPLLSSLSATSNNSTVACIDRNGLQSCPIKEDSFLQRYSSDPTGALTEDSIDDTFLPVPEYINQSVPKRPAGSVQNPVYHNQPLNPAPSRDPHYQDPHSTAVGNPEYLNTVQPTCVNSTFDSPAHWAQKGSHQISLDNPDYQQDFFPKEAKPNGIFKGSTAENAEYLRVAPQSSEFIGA
IC50 (EGFR) [nM],IC50 (ITK) [nM],IC50 (SRC) [nM],IC50 (TEC) [nM],SMILES
100 to 1000,100 to 1000,10 to 100,10 to 100,"C[C@@H]1[C@H](NC(=O)c2ccc(C3CC3)cc2F)CCCN1c1cnc(C(N)=O)c(Nc2ccc(N3CCN(C)CC3)c(F)c2)n1 [Example A-171, 5-[(2R,3R)-3-(4-cyclopropyl-2-fluorobenzamido)-2-methylpiperidin-1-yl]-3-{[3-fluoro-4-(4-methylpiperazin-1-yl)phenyl]amino}pyrazine-2-carboxamide]"
100 to 1000,100 to 1000,10 to 100,10 to 100,C[C@@H]1[C@H](NC(=O)c2ccc(C3CC3)cc2)CCCN1c1cnc(C(N)=O)c(Nc2cnn(C3CCN(C)CC3)c2)n1 [Example A-173]
1000 to 10000,> 10000,> 10000,100 to 1000,"C[C@@H]1[C@H](NC(=O)c2ccc(C3CC3)cc2F)CCCN1c1cnc(C(N)=O)c(Nc2ccc(S(=O)(=O)N3CCCC3)cc2)n1 [Example A-175, 5-[(2R,3R)-3-(4-cyclopropyl-2-fluorobenzamido)-2-methylpiperidin-1-yl]-3-{[4-(pyrrolidine-1-sulfonyl)phenyl]amino}pyr-azine-2-carboxamide]"
100 to 1000,100 to 1000,100 to 1000,10 to 100,"C[C@@H]1[C@H](NC(=O)c2ccc(C3CC3)cc2F)CCCN1c1cnc(C(N)=O)c(Nc2ccc(N3CCN(C)C[C@@H]3C)cc2)n1 [Example A-176, 5-[(2R,3R)-3-(4-cyclopropyl-2-fluorobenzamido)-2-methylpiperidin-1-yl]-3-({4-[(2S)-2,4-dimethylpiperazin-1-yl]phenyl}amino)pyrazine-2-carboxamide]"
1000 to 10000,1000 to 10000,100 to 1000,100 to 1000,"C[C@@H]1[C@H](NC(=O)c2ccc(C3CC3)cc2F)CCCN1c1cnc(C(N)=O)c(Nc2ccc(N3CCN(C)CC3)nc2)n1 [Example A-177, 5-[(2R,3R)-3-(4-cyclopropyl-2-fluorobenzamido)-2-methylpiperidin-1-yl]-3-{[6-(4-methylpiperazin-1-yl)pyridin-3-yl]amino}pyrazine-2-caoxamide]"
1000 to 10000,100 to 1000,100 to 1000,10 to 100,"CN1CCC(n2cc(Nc3nc(N4CCC[C@@H](n5ccc6cc(C7CC7)ccc6c5=O)C4)cnc3C(N)=O)cn2)CC1 [Example A-178, 5-[(3R)-3-(6-cyclopropyl-1-oxo-1,2-dihydroisoquinolin-2-yl)piperidin-1-yl]-3-{[1-(1-methylpiperidin-4-yl)-1H-pyrazol-4-yl]amino}pyrazine-2-carboxamide]"
100 to 1000,100 to 1000,10 to 100,10 to 100,"C[C@@H]1[C@H](NC(=O)c2ccc(C3CC3)cn2)CCCN1c1cnc(C(N)=O)c(Nc2ccc(N3CCN(C)CC3)cc2)n1 [Example A-179, 5-[(2R,3R)-3-(5-cyclopropyl-pyridine-2-amido)-2-methylpiperidin-1-yl]-3-{[4-(4-methylpiperazin-1-yl)phenyl]amino}pyrazine-2-carboxamide]"
100 to 1000,100 to 1000,100 to 1000,10 to 100,"C[C@@H]1[C@H](NC(=O)c2ccc(C3CC3)cc2Cl)CCCN1c1cnc(C(N)=O)c(Nc2ccc(N3CCN(C)CC3)cc2)n1 [Example A-180, 5-[(2R,3R)-3-(2-chloro-4-cyclopropylbenzamido)-2-methylpiperidin-1-yl]-3-{[4-(4-methylpiperazin-1-yl)phenyl]amino}pyrazine-2-carboxamide]"
1000 to 10000,10 to 100,10 to 100,10 to 100,"C[C@@H]1[C@H](NC(=O)c2ccc(C3CC3)cc2)CCCN1c1cnc(C(N)=O)c(Nc2cc(CN3CCCCC3)ns2)n1 [Example A-181, 5-[(2R,3R)-3-(4-cyclopropylbenzamido)-2-methylpiperidin-1-yl]-3-{[3-(piperidin-1-ylmethyl)-1,2-thiazol-5-yl]amino}pyrazine-2-carboxamide]"
1000 to 10000,1000 to 10000,100 to 1000,100 to 1000,"C[C@@H]1[C@H](NC(=O)c2ccc(C3CC3)cc2)CCCN1c1cnc(C(N)=O)c(Nc2cnn(CCN(C)C)c2)n1 [Example A-182, 5-[(2R,3R)-3-(4-cyclopropylbenzamido)-2-methylpiperidin-1-yl]-3-({1-[2-(dimethylamino)ethyl]-1H-pyrazol-4-yl}amino)pyrazine-2-carboxamide]"
100 to 1000,10 to 100,10 to 100,10 to 100,"Cc1cc(Nc2nc(N3CCC[C@@H](NC(=O)N4Cc5ccccc5C4=O)C3)cnc2C(N)=O)sn1 [Example A-183, N-[(3R)-1-{5-carbamoyl-6-[(3-methyl-1,2-thiazol-5-yl)amino]pyrazin-2-yl}piperidin-3-yl]-1-oxo-2,3-dihydro-1H-isoindole-2-carboxamide]"
1000 to 10000,100 to 1000,1000 to 10000,10 to 100,"C[C@@H]1[C@H](NC(=O)c2ccc(C(C)(C)C)cc2)CCCN1c1cnc(C(N)=O)c(Nc2ccc(N3CCN(C)CC3)cc2)n1 [Example A-184, 5-[(2R,3R)-3-(4-tert-butylbenzamido)-2-methylpiperidin-1-yl]-3-{[4-(4-methylpiperazin-1-yl)phenyl]amino}pyrazine-2-carboxamide]"
> 10000,100 to 1000,10 to 100,100 to 1000,"COCCN(C)Cc1cc(Nc2nc(N3CCC[C@@H](NC(=O)c4ccc(C5CC5)cc4)[C@H]3C)cnc2C(N)=O)sn1 [Example A-185, 5-((2R,3R)-3-(4-cyclopropylbenzamido)-2-methylpiperidin-1-yl)-3-(3-(((2-methoxyethyl)(meth-yl)amino)meth-yl)isothiazol-5-ylamino)pyr-azine-2-carboxamide]"
1000 to 10000,100 to 1000,100 to 1000,100 to 1000,"COCCn1cc(Nc2nc(N3CCC[C@@H](NC(=O)c4ccc(C5CC5)cc4)[C@H]3C)cnc2C(N)=O)cn1 [Example A-186, 5-((2R,3R)-3-(4-cyclopropylbenzamido)-2-methylpiperidin-1-yl)-3-(1-(2-methoxylethyl)-1H-pyrazol-4-ylamino)pyrazine-2-carboxamide]"
1000 to 10000,> 10000,> 10000,1000 to 10000,"Cn1cc(Nc2nc(N3C[C@@H](NC(=O)c4ccc(C5CC5)cc4)CC(F)(F)C3)cnc2C(N)=O)cn1 [Example A-187, (S)-5-(5-(4-cyclopropylbenzamido)-3,3-difluoropiperidin-1-yl)-3-(1-methyl-1H-pyrazol-4-ylamino)pyrazine-2-carboxamide]"
1000 to 10000,1000 to 10000,100 to 1000,100 to 1000,"Cn1cc(Nc2nc(N3C[C@H](NC(=O)c4ccc(C5CC5)cc4)CC(F)(F)C3)cnc2C(N)=O)cn1 [Example A-188, (R)-5-(5-(4-cyclopropylbenzamido)-3,3-difluoropiperidin-1-yl)-3-(1-methyl-1H-pyrazol-4-ylamino)pyrazine-2-carboxamide]"
1000 to 10000,100 to 1000,100 to 1000,100 to 1000,"C[C@@H]1[C@H](NC(=O)c2ccc(C3CC3)c(Cl)c2)CCCN1c1cnc(C(N)=O)c(Nc2ccc(N3CCN(C)CC3)cc2)n1 [Example A-189, 5-((2R,3R)-3-(3-chloro-4-cyclopropylbenzamido)-2-methylpiperidin-1-yl)-3-(4-(4-methylpiperazin-1-yl)phenylamino)pyrazine-2-carboxamide]"

SMILES,IC50 (EGFR) [nM],IC50 (ITK) [nM],IC50 (SRC) [nM],IC50 (TEC) [nM]
"C[C@@H]1[C@H](NC(=O)c2ccc(C3CC3)cc2F)CCCN1c1cnc(C(N)=O)c(Nc2ccc(C3(C)CCN(C4CC4)CC3)cc2)n1 [Example A-174, 5-[(2R,3R)-3-(4-cyclopropyl-2-fluorobenzamido)-2-methylpiperidin-1-yl]-3-{[4-(1-cyclopropyl-4-methylpiperidin-4-yl)phenyl]amino}pyrazine-2-carboxamide]",100 to 1000,100 to 1000,100 to 1000,10 to 100

# Source: US20210070748A1, “INHIBITORS OF BRUTONS TYROSINE KINASE” (Pharmacyclics LLC, priority 2015, published 2021)
